Assay results from the supplement of paper PMC10307832.

Legend:
Test in all cases: relative viability (nuclei count vs DMSO), 5 days (fraction); higher = more cells survive
HCC-44 = system: HCC-44
Outline: (§1)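 Lung cancer cell lines in 1536-well plates got either a single drug or a fixed anchor-drug dose together with five library-drug doses (not always all listed) in √10 steps, by pin tool, on the day after seeding. Nuclei were counted after 5 days, and relative viability is the treated-to-vehicle ratio of nuclei counts. Values are medians of duplicate plates.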

SW 1573 = system: SW 1573
Outline: as §1

NCI-H1650 = system: NCI-H1650
Outline: as §1

NCI-H23 = system: NCI-H23
Outline: as §1

NCI-H1563 = system: NCI-H1563
Outline: as §1

H3255 = system: H3255
Outline: as §1

NCI-H596 = system: NCI-H596
Outline: as §1

NCI-H2347 = system: NCI-H2347
Outline: as §1

PC-3 [JPC-3] = system: PC-3 [JPC-3]
Outline: as §1

LK-2 = system: LK-2
Outline: as §1

LU99A = system: LU99A
Outline: as §1

NCI-H727 = system: NCI-H727
Outline: as §1

A-427 = system: A-427
Outline: as §1

COR-L23 = system: COR-L23
Outline: as §1

LC-2-ad = system: LC-2-ad
Outline: as §1

PC-14 = system: PC-14
Outline: as §1

NCI-H1793 = system: NCI-H1793
Outline: as §1

NCI-H460 = system: NCI-H460
Outline: as §1

201T = system: 201T
Outline: as §1

LCLC-97TM1 = system: LCLC-97TM1
Outline: as §1

NCI-H2228 = system: NCI-H2228
Outline: as §1

For `CCN(CC)CCCCNc1ncc2cc(-c3cc(OC)cc(OC)c3)c(NC(=O)NC(C)(C)C)nc2n1` + CS(=O)(=O)CCNCc1ccc(-c2ccc3ncnc(Nc4ccc(OCc5cccc(F)c5)c(Cl)c4)c3c2)o1 [Lapatinib] (partner 2 µM), the relative viability (HCC-44; first compound 0.01 µM) was 1.07, the relative viability (HCC-44; first compound 0.03162 µM) was 1.05 and the relative viability (HCC-44; first compound 0.1 µM) was 1.26. For the same compound, the relative viability (HCC-44; first compound 0.3162 µM) was 1.28, the relative viability (HCC-44; first compound 1 µM) was 0.865 and the relative viability (SW 1573; first compound 0.01 µM) was 1.11. The relative viability (SW 1573; first compound 0.03162 µM) was 1.1, the relative viability (SW 1573; first compound 0.1 µM) was 1.19 and the relative viability (SW 1573; first compound 0.3162 µM) was 0.978. For the same compound, the relative viability (SW 1573; first compound 1 µM) was 1.12, the relative viability (NCI-H1650; first compound 0.01 µM) was 0.714 and the relative viability (NCI-H1650; first compound 0.03162 µM) was 0.733. The relative viability (NCI-H1650; first compound 0.1 µM) was 0.614, the relative viability (NCI-H1650; first compound 0.3162 µM) was 0.35 and the relative viability (NCI-H1650; first compound 1 µM) was 0.242. It also gave a relative viability (NCI-H23; first compound 0.01 µM) of 1.09, a relative viability (NCI-H23; first compound 0.03162 µM) of 1.12 and a relative viability (NCI-H23; first compound 0.1 µM) of 1.36. For the same compound, the relative viability (NCI-H23; first compound 0.3162 µM) was 1.1, the relative viability (NCI-H23; first compound 1 µM) was 0.961 and the relative viability (NCI-H1563; first compound 0.01 µM) was 0.884. For the same compound, the relative viability (NCI-H1563; first compound 0.03162 µM) was 0.895, the relative viability (NCI-H1563; first compound 0.1 µM) was 0.849 and the relative viability (NCI-H1563; first compound 0.3162 µM) was 0.792. The relative viability (NCI-H1563; first compound 1 µM) was 0.621, the relative viability (H3255; first compound 0.01 µM) was 0.26 and the relative viability (H3255; first compound 0.03162 µM) was 0.235. It also gave a relative viability (H3255; first compound 0.1 µM) of 0.25, a relative viability (H3255; first compound 0.3162 µM) of 0.258 and a relative viability (H3255; first compound 1 µM) of 0.227. For the same compound, the relative viability (NCI-H596; first compound 0.01 µM) was 0.967, the relative viability (NCI-H596; first compound 0.03162 µM) was 1.04 and the relative viability (NCI-H596; first compound 0.1 µM) was 1.11. The relative viability (NCI-H596; first compound 0.3162 µM) was 0.977, the relative viability (NCI-H596; first compound 1 µM) was 0.854 and the relative viability (NCI-H2347; first compound 0.01 µM) was 0.923. It also gave a relative viability (NCI-H2347; first compound 0.03162 µM) of 0.79, a relative viability (NCI-H2347; first compound 0.1 µM) of 1.06 and a relative viability (NCI-H2347; first compound 0.3162 µM) of 0.878. It also gave a relative viability (NCI-H2347; first compound 1 µM) of 0.931, a relative viability (PC-3 [JPC-3]; first compound 0.01 µM) of 0.479 and a relative viability (PC-3 [JPC-3]; first compound 0.03162 µM) of 0.453. It also gave a relative viability (PC-3 [JPC-3]; first compound 0.1 µM) of 0.519, a relative viability (PC-3 [JPC-3]; first compound 0.3162 µM) of 0.538 and a relative viability (PC-3 [JPC-3]; first compound 1 µM) of 0.446. It also gave a relative viability (LK-2; first compound 0.01 µM) of 0.98, a relative viability (LK-2; first compound 0.03162 µM) of 0.814 and a relative viability (LK-2; first compound 0.1 µM) of 0.966. For the same compound, the relative viability (LK-2; first compound 0.3162 µM) was 0.645, the relative viability (LK-2; first compound 1 µM) was 0.303 and the relative viability (LU99A; first compound 0.01 µM) was 0.946. It also gave a relative viability (LU99A; first compound 0.03162 µM) of 0.924, a relative viability (LU99A; first compound 0.1 µM) of 1.17 and a relative viability (LU99A; first compound 0.3162 µM) of 1.14. The relative viability (LU99A; first compound 1 µM) was 0.93, the relative viability (NCI-H727; first compound 0.01 µM) was 0.705 and the relative viability (NCI-H727; first compound 0.03162 µM) was 0.743. It also gave a relative viability (NCI-H727; first compound 0.1 µM) of 0.944, a relative viability (NCI-H727; first compound 0.3162 µM) of 0.967 and a relative viability (NCI-H727; first compound 1 µM) of 1.08. It also gave a relative viability (A-427; first compound 0.01 µM) of 1.15, a relative viability (A-427; first compound 0.03162 µM) of 0.971 and a relative viability (A-427; first compound 0.1 µM) of 1.08. For the same compound, the relative viability (A-427; first compound 0.3162 µM) was 1.1, the relative viability (A-427; first compound 1 µM) was 0.899 and the relative viability (COR-L23; first compound 0.01 µM) was 1.09. For the same compound, the relative viability (COR-L23; first compound 0.03162 µM) was 0.973, the relative viability (COR-L23; first compound 0.1 µM) was 0.943 and the relative viability (COR-L23; first compound 0.3162 µM) was 1.19. For the same compound, the relative viability (COR-L23; first compound 1 µM) was 0.881, the relative viability (LC-2-ad; first compound 0.01 µM) was 1.05 and the relative viability (LC-2-ad; first compound 0.03162 µM) was 1. It also gave a relative viability (LC-2-ad; first compound 0.1 µM) of 1.22, a relative viability (LC-2-ad; first compound 0.3162 µM) of 1.12 and a relative viability (LC-2-ad; first compound 1 µM) of 0.917. It also gave a relative viability (PC-14; first compound 0.01 µM) of 0.318, a relative viability (PC-14; first compound 0.03162 µM) of 0.373 and a relative viability (PC-14; first compound 0.1 µM) of 0.391. The relative viability (PC-14; first compound 0.3162 µM) was 0.362, the relative viability (PC-14; first compound 1 µM) was 0.237 and the relative viability (NCI-H1793; first compound 0.01 µM) was 0.623. It also gave a relative viability (NCI-H1793; first compound 0.1 µM) of 1.03, a relative viability (NCI-H1793; first compound 0.3162 µM) of 0.562 and a relative viability (NCI-H1793; first compound 1 µM) of 0.367. The relative viability (NCI-H460; first compound 0.01 µM) was 1.27, the relative viability (NCI-H460; first compound 0.03162 µM) was 1.18 and the relative viability (NCI-H460; first compound 0.1 µM) was 0.985. The relative viability (NCI-H460; first compound 0.3162 µM) was 1.53, the relative viability (NCI-H460; first compound 1 µM) was 0.532 and the relative viability (201T; first compound 0.01 µM) was 1.03. It also gave a relative viability (201T; first compound 0.03162 µM) of 1.04, a relative viability (201T; first compound 0.1 µM) of 1.12 and a relative viability (201T; first compound 0.3162 µM) of 1.08. For the same compound, the relative viability (201T; first compound 1 µM) was 0.884, the relative viability (LCLC-97TM1; first compound 0.03162 µM) was 0.958 and the relative viability (LCLC-97TM1; first compound 0.1 µM) was 1.13. The relative viability (LCLC-97TM1; first compound 0.3162 µM) was 0.923, the relative viability (LCLC-97TM1; first compound 1 µM) was 1.12 and the relative viability (NCI-H2228; first compound 0.01 µM) was 1.06. The relative viability (NCI-H2228; first compound 0.03162 µM) was 1.35, the relative viability (NCI-H2228; first compound 0.1 µM) was 1.19 and the relative viability (NCI-H2228; first compound 0.3162 µM) was 1.22. It also gave a relative viability (NCI-H2228; first compound 1 µM) of 0.74.
